The source of these data is patent US8288367B2, “Substituted estratriene derivatives as 17BETA HSD inhibitors” (Solvay Pharmaceuticals GmBH, priority 2006, dated 2012).

The target of experiment [1] is T1, recombinant human 17β-HSD2 (Homo sapiens, UniProt P37059).
T1 construct: made in house; host or cells: Sf9 insect cells (baculovirus, Bac to Bac Expression System)
T1 sequence (P37059 1-387): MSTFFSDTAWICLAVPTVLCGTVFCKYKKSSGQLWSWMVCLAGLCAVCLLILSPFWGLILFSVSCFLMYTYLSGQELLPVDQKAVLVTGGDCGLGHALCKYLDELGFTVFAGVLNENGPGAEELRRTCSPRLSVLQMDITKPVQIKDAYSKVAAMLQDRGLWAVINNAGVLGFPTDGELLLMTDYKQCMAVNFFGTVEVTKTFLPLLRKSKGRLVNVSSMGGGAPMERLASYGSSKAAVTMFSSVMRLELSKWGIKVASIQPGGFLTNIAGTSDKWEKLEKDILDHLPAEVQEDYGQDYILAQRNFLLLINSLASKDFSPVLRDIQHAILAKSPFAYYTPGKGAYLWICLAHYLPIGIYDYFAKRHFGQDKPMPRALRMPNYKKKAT
Description: Recombinant 17β-HSD2 assay (HPLC, 3H-estradiol conversion). It counts as biochemical. Conditions: 50 nM estradiol, 1 mM β-NAD, read-out: Inhibition of rec. 17β-HSD2; for inhibition at 0.1 µM: 100 nM compound; for inhibition at 1 µM: 1 μm compound. The essentials: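 Homogenate of Sf9 cells expressing recombinant human 17β-HSD2 (6 μg/ml protein) incubated with 50 nM estradiol plus 3H-estradiol tracer and 1 mM β-NAD. Estrone and estradiol radioactivity separated by HPLC; % inhibition = 100 − % conversion to estrone.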

The target of experiment [2] is T2, recombinant human 17β-HSD1 (Homo sapiens, UniProt P14061).
T2 construct: made in house; host or cells: Sf9 insect cells (baculovirus, Bac to Bac Expression System)
T2 sequence (P14061 1-328): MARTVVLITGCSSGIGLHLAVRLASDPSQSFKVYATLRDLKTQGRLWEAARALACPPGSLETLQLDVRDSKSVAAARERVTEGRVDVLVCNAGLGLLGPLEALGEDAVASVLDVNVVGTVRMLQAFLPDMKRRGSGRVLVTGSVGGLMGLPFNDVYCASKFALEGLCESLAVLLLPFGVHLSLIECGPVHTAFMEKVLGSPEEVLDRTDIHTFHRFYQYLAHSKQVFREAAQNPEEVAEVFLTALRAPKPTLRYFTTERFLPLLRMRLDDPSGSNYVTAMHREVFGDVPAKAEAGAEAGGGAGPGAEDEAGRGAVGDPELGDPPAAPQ
Description: Recombinant 17β-HSD1 assay (HPLC, 3H-estrone conversion). The format is biochemical. Conditions: 30 nM estrone, 1 mM NADPH, 30 min RT, read-out: Inhibition of rec. 17β-HSD1; for inhibition at 0.1 µM: 100 nM compound; for inhibition at 1 µM: 0.5 h, 1 μm compound. Summed up: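 Sf9-expressed human 17β-HSD1 homogenate (0.1 μg/ml) in 20 mM KH2PO4 pH 7.4 with 30 nM estrone plus 3H-estrone tracer and 1 mM NADPH, 30 min at RT, inhibitors at 1 μM or 0.1 μM. Stopped with TCA; estrone and estradiol separated by reverse-phase HPLC with flow scintillation; % inhibition = 100 − % conversion.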

In a further experiment the target is T3, 17β-HSD3 enzyme (Homo sapiens, UniProt P37058).
T3 construct: expressed in transfected cells; host or cells: MCF-7 cell lines stably expressing 17β-HSD3
T3 sequence (P37058 1-310): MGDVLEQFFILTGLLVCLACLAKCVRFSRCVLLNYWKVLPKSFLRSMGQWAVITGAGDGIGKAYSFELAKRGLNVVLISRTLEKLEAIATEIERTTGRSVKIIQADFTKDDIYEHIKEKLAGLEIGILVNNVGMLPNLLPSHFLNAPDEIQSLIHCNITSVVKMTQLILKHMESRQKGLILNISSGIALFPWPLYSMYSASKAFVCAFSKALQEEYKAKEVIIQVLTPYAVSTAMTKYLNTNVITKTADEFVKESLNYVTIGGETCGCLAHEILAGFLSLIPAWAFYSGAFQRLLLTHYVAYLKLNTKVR
Description: Inhibition of 17β-HSD type 3 enzyme in MCF-7 cells stably expressing 17β-HSD3 (HPLC). It counts as cell-based. Conditions: MCF7, MCF-7 cells expressing 17β-HSD3, 2 nM androstenedione; for inhibition at 1 µM: 1 μM compound; for inhibition at 10 µM: 10 μM compound. The procedure: The compounds were screened in respect of 17β-HSD3 enzyme activity in vitro on established MCF-7 cell lines, each stably expressing the 17β-HSD3 enzyme. The interconversion of substrate by 17β-HSD3 and the 17β-HSD3 inhibiting activity of chemical compounds in these cell lines were detected by HPLC system.
Varying amounts of the test compounds were incubated in the growth medium of the 17β-HSD3 expressing cells together tritium labeled androstenedione (2 nM). The medium samples were removed after exact incubation time and the reaction is stopped by trichloroacetic acid (TCA). The samples were analyzed by HPLC-coupled flow scintillation analysis.
Conversion: The 17β-HSD3 inhibiting activity of an individual test compound was calculated by comparing the conversion of a control sample without any test compound (referred to as “Negative Control”) to the (reduced) conversion of the test sample containing the particular compound to be tested (referred to as “Test Sample”).

Consider `C[C@]12CC[C@@H]3c4ccc(B(O)O)cc4CC[C@H]3[C@@H]1[C@H](CCC(=O)NCc1ccccc1)CC2(F)F` [Compound 63, [15beta-[3-(benzylamino)-3-oxopropyl]-17,17-difluoroestra-1(10),2,4-trien-3-yl]boronic acid], for which the inhibition at 0.1 µM in experiment [1] worked out at 12.8%; in experiment [2] it was 51%. In addition, the inhibition at 1 µM in experiment [1] was determined as 16.9%; in experiment [2], 66%; on 17β-HSD3 enzyme, 41%. The inhibition at 10 µM at 17β-HSD3 enzyme was 88%.

Take `Cc1cccc2c(CCNC(=O)CC[C@@H]3CC(F)(F)[C@@]4(C)CC[C@@H]5c6ccc(B(O)O)cc6CC[C@H]5[C@H]34)c[nH]c12` [Compound 67, [17,17-difluoro-15beta-(3-{[2-(7-methyl-1H-indol-3-yl)ethyl]amino}-3-oxopropyl)estra-1(10),2,4-trien-3-yl]boronic acid]: the inhibition at 0.1 µM in experiment [1] was 10%; in experiment [2], 47%. Besides, the figures for the inhibition at 1 µM (in experiment [1]; in experiment [2]; at 17β-HSD3 enzyme) were 15.8%, 66% and 40%, respectively. For the same compound, the inhibition at 10 µM against 17β-HSD3 enzyme was 84%.

With `CCN(CC)C(=O)CC[C@@H]1CC(F)(F)[C@@]2(C)CC[C@@H]3c4ccc(B(O)O)cc4CC[C@H]3[C@H]12` [Compound 71, [15beta-[3-(diethylamino)-3-oxopropyl]-17,17-difluoroestra-1(10),2,4-trien-3-yl]boronic acid], the results for the inhibition at 0.1 µM in experiment [1] and in experiment [2] were 7.9% and 78%, respectively. The inhibition at 1 µM stood at 16.3% in experiment [1], 85% in experiment [2] and 31% against 17β-HSD3 enzyme. Also, at 17β-HSD3 enzyme, the inhibition at 10 µM was found to be 60%.

On to `COc1ccc(CCN(C)C(=O)CC[C@@H]2CC(F)(F)[C@@]3(C)CC[C@@H]4c5ccc(B(O)O)cc5CC[C@H]4[C@H]23)cc1OC` [Compound 72, [15beta-(3-{[2-(3,4-dimethoxyphenyl)ethyl](methyl)amino}-3-oxopropyl)-17,17-difluoroestra-1(10),2,4-trien-3-yl]boronic acid], for which, in experiment [1], the inhibition at 0.1 µM was -2.4% and the inhibition at 1 µM was 5.3%. Also, in experiment [2], the inhibition at 0.1 µM was 39% and the inhibition at 1 µM stood at 77%. In addition, on 17β-HSD3 enzyme, the inhibition at 1 µM was 45% and the inhibition at 10 µM worked out at 71%.

Regarding `C[C@]12CC[C@@H]3c4ccc(Nc5ccc6c(c5)S(=O)(=O)C=C6)cc4CC[C@H]3[C@@H]1[C@@H](CCCC(=O)N1CCOCC1)CC2=O` [Compound 91, 3-[(1,1-dioxido-1-benzothien-6-yl)amino]-15alpha-(4-morpholin-4-yl-4-oxobutyl)estra-1(10),2,4-trien-17-one], the inhibition at 0.1 µM in experiment [1] stood at 0.7%; in experiment [2], 36%. Besides, the inhibition at 1 µM in experiment [1] came to 5.7%; in experiment [2], 69%; on 17β-HSD3 enzyme, 7%. On 17β-HSD3 enzyme, the inhibition at 10 µM stood at 52%.
